Source: ChEMBL document CHEMBL5715260, “Selectivity Literature for EUbOPEN Chemogenomic Library” (2024)

Experiments:
[1] = molecular target: T1, Alpha trans-inducing protein (Human alphaherpesvirus 1) (UniProt A0A5J6DW59); experiment: Selectivity interaction (Reporter gene assay) EUB0000581a UL48; design: recommended concentration 1 uM
[2] = molecular target: Nuclear receptor subfamily 4immunitygroup A member 1 (Homo sapiens) (UniProt P22736); experiment: Selectivity interaction (Reporter gene assay) EUB0000581a NR4A1; design: recommended concentration 1 uM
[3] = molecular target: T2, Retinoic acid receptor RXR-alpha (Homo sapiens) (UniProt P19793); experiment: Selectivity interaction (Reporter gene assay) EUB0000581a RXRA; design: recommended concentration 1 uM; settings: reference bexarotene 1 uM, Selectivity number of off-targets 0.0, Selectivity number of targets 1.0, Source Knowledge inhouse
T2 sequence (whole entry): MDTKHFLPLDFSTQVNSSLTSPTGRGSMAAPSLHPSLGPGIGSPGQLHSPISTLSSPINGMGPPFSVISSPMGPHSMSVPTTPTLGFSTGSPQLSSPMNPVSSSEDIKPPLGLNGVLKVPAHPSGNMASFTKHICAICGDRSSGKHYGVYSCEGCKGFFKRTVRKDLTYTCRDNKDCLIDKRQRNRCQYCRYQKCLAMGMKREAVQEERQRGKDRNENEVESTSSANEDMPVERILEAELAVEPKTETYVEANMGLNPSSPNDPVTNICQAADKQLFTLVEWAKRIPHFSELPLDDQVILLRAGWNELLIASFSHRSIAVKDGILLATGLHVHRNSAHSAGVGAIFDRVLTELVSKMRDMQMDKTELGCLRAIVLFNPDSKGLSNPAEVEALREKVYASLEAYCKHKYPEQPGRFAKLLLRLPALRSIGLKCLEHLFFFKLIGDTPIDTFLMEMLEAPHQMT

[4] = molecular target: T3, Peroxisome proliferator-activated receptor gamma (Homo sapiens) (UniProt P37231); experiment: Selectivity interaction (Reporter gene assay) EUB0000581a PPARG; design: recommended concentration 1 uM; settings: screened at recom. conc., Selectivity number of off-targets 1.0, Selectivity number of targets 19.0, Source Knowledge inhouse
T3 sequence (whole entry): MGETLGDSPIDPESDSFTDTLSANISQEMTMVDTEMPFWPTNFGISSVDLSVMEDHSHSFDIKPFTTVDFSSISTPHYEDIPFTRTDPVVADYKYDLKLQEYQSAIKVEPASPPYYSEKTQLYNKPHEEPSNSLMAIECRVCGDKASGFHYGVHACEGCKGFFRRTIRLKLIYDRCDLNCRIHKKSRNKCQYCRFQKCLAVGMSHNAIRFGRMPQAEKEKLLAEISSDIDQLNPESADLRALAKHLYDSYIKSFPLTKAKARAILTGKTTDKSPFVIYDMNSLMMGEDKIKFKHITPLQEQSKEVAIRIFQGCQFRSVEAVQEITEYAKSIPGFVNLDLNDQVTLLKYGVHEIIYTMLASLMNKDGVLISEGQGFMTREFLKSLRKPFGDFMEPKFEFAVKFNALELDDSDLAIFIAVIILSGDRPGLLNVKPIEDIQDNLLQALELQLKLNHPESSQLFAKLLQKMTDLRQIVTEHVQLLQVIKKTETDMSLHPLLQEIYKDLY

[5] = molecular target: Steroidogenic factor 1 (Homo sapiens) (UniProt Q13285); experiment: Selectivity interaction (Reporter gene assay) EUB0000581a NR5A1; design: recommended concentration 1 uM
[6] = molecular target: T4, Hepatocyte nuclear factor 4-alpha (Homo sapiens) (UniProt P41235); experiment: Selectivity interaction (Reporter gene assay) EUB0000581a HNF4A; design: recommended concentration 1 uM
T4 sequence (whole entry): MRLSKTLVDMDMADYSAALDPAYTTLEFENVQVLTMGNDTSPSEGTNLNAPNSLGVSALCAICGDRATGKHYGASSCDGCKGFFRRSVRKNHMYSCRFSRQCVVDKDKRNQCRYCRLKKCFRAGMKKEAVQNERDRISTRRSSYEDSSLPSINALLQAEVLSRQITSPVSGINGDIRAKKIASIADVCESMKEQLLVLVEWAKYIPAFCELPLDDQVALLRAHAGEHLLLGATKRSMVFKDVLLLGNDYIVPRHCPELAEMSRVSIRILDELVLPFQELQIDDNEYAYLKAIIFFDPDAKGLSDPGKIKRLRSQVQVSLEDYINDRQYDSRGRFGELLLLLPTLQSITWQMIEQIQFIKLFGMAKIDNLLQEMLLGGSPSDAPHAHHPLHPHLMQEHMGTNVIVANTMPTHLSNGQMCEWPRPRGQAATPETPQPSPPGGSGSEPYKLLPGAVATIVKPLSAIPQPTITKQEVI

[7] = molecular target: Nuclear receptor subfamily 2 group E member 1 (Homo sapiens) (UniProt Q9Y466); experiment: Selectivity interaction (Reporter gene assay) EUB0000581a NR2E1; design: recommended concentration 1 uM
[8] = molecular target: T5, Nuclear receptor subfamily 2 group C member 1 (Homo sapiens) (UniProt P13056); experiment: Selectivity interaction (Reporter gene assay) EUB0000581a NR2C1; design: recommended concentration 1 uM
T5 sequence (whole entry): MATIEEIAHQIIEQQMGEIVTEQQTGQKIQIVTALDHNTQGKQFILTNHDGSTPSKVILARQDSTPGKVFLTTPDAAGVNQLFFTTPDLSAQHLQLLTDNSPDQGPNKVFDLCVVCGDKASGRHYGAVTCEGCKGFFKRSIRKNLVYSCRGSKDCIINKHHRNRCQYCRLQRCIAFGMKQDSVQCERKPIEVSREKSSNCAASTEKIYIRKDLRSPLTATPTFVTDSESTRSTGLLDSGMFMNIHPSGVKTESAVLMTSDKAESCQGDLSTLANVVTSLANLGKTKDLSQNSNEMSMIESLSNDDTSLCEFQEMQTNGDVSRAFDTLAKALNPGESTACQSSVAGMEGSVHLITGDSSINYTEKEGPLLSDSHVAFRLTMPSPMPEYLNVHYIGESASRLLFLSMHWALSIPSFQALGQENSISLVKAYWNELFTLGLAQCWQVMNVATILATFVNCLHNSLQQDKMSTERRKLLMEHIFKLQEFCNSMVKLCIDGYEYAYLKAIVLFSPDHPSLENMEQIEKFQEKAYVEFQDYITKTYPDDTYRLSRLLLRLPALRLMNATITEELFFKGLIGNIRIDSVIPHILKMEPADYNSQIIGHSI

[9] = molecular target: T5, Nuclear receptor subfamily 2 group C member 1 (Homo sapiens); experiment: Selectivity interaction (Reporter gene assay) EUB0000574a NR2C1; design: recommended concentration 10 uM
[10] = molecular target: Steroidogenic factor 1 (Homo sapiens) (UniProt Q13285); experiment: Selectivity interaction (Reporter gene assay) EUB0000574a NR5A1; design: recommended concentration 10 uM
[11] = molecular target: Nuclear receptor subfamily 4immunitygroup A member 1 (Homo sapiens) (UniProt P22736); experiment: Selectivity interaction (Reporter gene assay) EUB0000574a NR4A1; design: recommended concentration 10 uM
[12] = molecular target: T4, Hepatocyte nuclear factor 4-alpha (Homo sapiens); experiment: Selectivity interaction (Reporter gene assay) EUB0000574a HNF4A; design: recommended concentration 10 uM
[13] = molecular target: T1, Alpha trans-inducing protein (Human alphaherpesvirus 1); experiment: Selectivity interaction (Reporter gene assay) EUB0000574a UL48; design: recommended concentration 10 uM
[14] = molecular target: Nuclear receptor subfamily 2 group E member 1 (Homo sapiens) (UniProt Q9Y466); experiment: Selectivity interaction (Reporter gene assay) EUB0000574a NR2E1; design: recommended concentration 10 uM
[15] = molecular target: T2, Retinoic acid receptor RXR-alpha (Homo sapiens); experiment: Selectivity interaction (Reporter gene assay) EUB0000574a RXRA; design: recommended concentration 10 uM; settings: reference bexarotene 1 uM, Selectivity number of off-targets 0.0, Selectivity number of targets 1.0, Source Knowledge inhouse
[16] = molecular target: T2, Retinoic acid receptor RXR-alpha (Homo sapiens); experiment: Selectivity interaction (Reporter gene assay) EUB0000582a RXRA; design: recommended concentration 1 uM; settings: reference bexarotene 1 uM, Selectivity number of off-targets 0.0, Selectivity number of targets 1.0, Source Knowledge inhouse
[17] = molecular target: Nuclear receptor subfamily 4immunitygroup A member 1 (Homo sapiens) (UniProt P22736); experiment: Selectivity interaction (Reporter gene assay) EUB0000582a NR4A1; design: recommended concentration 1 uM
[18] = molecular target: T5, Nuclear receptor subfamily 2 group C member 1 (Homo sapiens); experiment: Selectivity interaction (Reporter gene assay) EUB0000582a NR2C1; design: recommended concentration 1 uM
[19] = molecular target: Nuclear receptor subfamily 2 group E member 1 (Homo sapiens) (UniProt Q9Y466); experiment: Selectivity interaction (Reporter gene assay) EUB0000582a NR2E1; design: recommended concentration 1 uM
[20] = molecular target: T1, Alpha trans-inducing protein (Human alphaherpesvirus 1); experiment: Selectivity interaction (Reporter gene assay) EUB0000582a UL48; design: recommended concentration 1 uM
[21] = molecular target: T4, Hepatocyte nuclear factor 4-alpha (Homo sapiens); experiment: Selectivity interaction (Reporter gene assay) EUB0000582a HNF4A; design: recommended concentration 1 uM
[22] = molecular target: Steroidogenic factor 1 (Homo sapiens) (UniProt Q13285); experiment: Selectivity interaction (Reporter gene assay) EUB0000582a NR5A1; design: recommended concentration 1 uM
[23] = molecular target: Nuclear receptor subfamily 2 group E member 1 (Homo sapiens) (UniProt Q9Y466); experiment: Selectivity interaction (Reporter gene assay) EUB0000576a NR2E1; design: recommended concentration 1 uM
[24] = molecular target: T5, Nuclear receptor subfamily 2 group C member 1 (Homo sapiens); experiment: Selectivity interaction (Reporter gene assay) EUB0000576a NR2C1; design: recommended concentration 1 uM
[25] = molecular target: Steroidogenic factor 1 (Homo sapiens) (UniProt Q13285); experiment: Selectivity interaction (Reporter gene assay) EUB0000576a NR5A1; design: recommended concentration 1 uM
[26] = molecular target: T1, Alpha trans-inducing protein (Human alphaherpesvirus 1); experiment: Selectivity interaction (Reporter gene assay) EUB0000576a UL48; design: recommended concentration 1 uM
[27] = molecular target: T4, Hepatocyte nuclear factor 4-alpha (Homo sapiens); experiment: Selectivity interaction (Reporter gene assay) EUB0000576a HNF4A; design: recommended concentration 1 uM
[28] = molecular target: T2, Retinoic acid receptor RXR-alpha (Homo sapiens); experiment: Selectivity interaction (Reporter gene assay) EUB0000576a RXRA; design: recommended concentration 1 uM; settings: reference bexarotene 1 uM, Selectivity number of off-targets 0.0, Selectivity number of targets 1.0, Source Knowledge inhouse
[29] = molecular target: Nuclear receptor subfamily 4immunitygroup A member 1 (Homo sapiens) (UniProt P22736); experiment: Selectivity interaction (Reporter gene assay) EUB0000576a NR4A1; design: recommended concentration 1 uM
[30] = molecular target: Steroidogenic factor 1 (Homo sapiens) (UniProt Q13285); experiment: Selectivity interaction (Reporter gene assay) EUB0000585a NR5A1; design: recommended concentration 1 uM
[31] = molecular target: T4, Hepatocyte nuclear factor 4-alpha (Homo sapiens); experiment: Selectivity interaction (Reporter gene assay) EUB0000585a HNF4A; design: recommended concentration 1 uM
[32] = molecular target: T2, Retinoic acid receptor RXR-alpha (Homo sapiens); experiment: Selectivity interaction (Reporter gene assay) EUB0000585a RXRA; design: recommended concentration 1 uM; settings: reference bexarotene 1 uM, Selectivity number of off-targets 0.0, Selectivity number of targets 1.0, Source Knowledge inhouse
[33] = molecular target: Nuclear receptor subfamily 4immunitygroup A member 1 (Homo sapiens) (UniProt P22736); experiment: Selectivity interaction (Reporter gene assay) EUB0000585a NR4A1; design: recommended concentration 1 uM
[34] = molecular target: Nuclear receptor subfamily 2 group E member 1 (Homo sapiens) (UniProt Q9Y466); experiment: Selectivity interaction (Reporter gene assay) EUB0000585a NR2E1; design: recommended concentration 1 uM
[35] = molecular target: T1, Alpha trans-inducing protein (Human alphaherpesvirus 1); experiment: Selectivity interaction (Reporter gene assay) EUB0000585a UL48; design: recommended concentration 1 uM
[36] = molecular target: T5, Nuclear receptor subfamily 2 group C member 1 (Homo sapiens); experiment: Selectivity interaction (Reporter gene assay) EUB0000585a NR2C1; design: recommended concentration 1 uM

Nuclear receptor subfamily 4immunitygroup A member 1 (Homo sapiens), sequence (P22736 whole entry): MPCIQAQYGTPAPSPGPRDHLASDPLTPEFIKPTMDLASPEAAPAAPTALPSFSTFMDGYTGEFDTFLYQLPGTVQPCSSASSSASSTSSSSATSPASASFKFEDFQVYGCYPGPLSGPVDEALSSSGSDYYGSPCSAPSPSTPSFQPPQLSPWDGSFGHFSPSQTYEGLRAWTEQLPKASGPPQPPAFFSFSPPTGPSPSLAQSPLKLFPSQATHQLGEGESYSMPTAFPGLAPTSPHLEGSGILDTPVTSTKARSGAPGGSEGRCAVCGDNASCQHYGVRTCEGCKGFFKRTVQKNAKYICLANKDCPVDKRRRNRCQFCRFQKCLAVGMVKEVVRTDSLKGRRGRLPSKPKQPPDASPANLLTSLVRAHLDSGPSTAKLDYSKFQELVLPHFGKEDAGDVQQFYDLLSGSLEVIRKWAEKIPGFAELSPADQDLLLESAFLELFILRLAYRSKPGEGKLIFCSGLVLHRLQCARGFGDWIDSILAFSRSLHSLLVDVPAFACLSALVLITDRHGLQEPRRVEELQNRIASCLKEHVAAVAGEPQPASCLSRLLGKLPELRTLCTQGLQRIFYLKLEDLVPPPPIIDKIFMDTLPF
Nuclear receptor subfamily 2 group E member 1 (Homo sapiens), sequence (Q9Y466 whole entry): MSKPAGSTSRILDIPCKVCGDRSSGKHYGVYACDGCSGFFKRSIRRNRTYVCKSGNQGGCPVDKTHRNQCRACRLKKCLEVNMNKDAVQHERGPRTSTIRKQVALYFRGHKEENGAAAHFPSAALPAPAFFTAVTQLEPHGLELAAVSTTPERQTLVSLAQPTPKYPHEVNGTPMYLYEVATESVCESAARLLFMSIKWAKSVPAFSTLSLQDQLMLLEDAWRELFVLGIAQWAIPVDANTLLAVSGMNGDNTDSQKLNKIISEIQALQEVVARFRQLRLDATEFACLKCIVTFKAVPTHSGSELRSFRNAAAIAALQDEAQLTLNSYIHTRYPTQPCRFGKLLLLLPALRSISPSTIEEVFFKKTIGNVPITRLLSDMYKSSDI
Steroidogenic factor 1 (Homo sapiens), sequence (Q13285 whole entry): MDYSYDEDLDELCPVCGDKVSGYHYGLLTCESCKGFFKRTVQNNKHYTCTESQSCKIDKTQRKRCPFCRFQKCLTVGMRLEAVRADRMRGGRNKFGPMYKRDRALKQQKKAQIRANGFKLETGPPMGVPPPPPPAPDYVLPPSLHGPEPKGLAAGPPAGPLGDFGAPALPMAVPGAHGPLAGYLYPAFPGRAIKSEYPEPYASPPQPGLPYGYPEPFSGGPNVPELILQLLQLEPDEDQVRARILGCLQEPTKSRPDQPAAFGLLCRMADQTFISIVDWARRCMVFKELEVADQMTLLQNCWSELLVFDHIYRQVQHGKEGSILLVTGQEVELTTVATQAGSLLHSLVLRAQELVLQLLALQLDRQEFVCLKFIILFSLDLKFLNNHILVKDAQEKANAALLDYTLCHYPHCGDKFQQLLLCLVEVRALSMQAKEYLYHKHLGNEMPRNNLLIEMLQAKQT
T1 sequence (A0A5J6DW59 as listed by the source): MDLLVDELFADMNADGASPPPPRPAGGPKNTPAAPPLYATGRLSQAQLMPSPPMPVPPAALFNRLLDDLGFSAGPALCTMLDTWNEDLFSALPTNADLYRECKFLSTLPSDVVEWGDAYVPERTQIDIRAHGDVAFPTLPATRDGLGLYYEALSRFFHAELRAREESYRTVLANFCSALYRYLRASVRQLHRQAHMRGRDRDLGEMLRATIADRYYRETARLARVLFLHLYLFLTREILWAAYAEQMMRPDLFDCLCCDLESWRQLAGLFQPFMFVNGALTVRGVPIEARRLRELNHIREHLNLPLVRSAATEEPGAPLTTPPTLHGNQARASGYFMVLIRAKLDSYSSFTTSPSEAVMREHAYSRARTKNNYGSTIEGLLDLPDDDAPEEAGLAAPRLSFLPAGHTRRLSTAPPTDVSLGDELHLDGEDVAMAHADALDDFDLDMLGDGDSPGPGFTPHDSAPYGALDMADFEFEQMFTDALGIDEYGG

Work on `CC(C)c1ccc(CC(=O)N2CCC[C@@H](c3cccc(OC(C)(C)C(=O)O)c3)C2)cc1` yielded a P-value [1] of 0.0017, a Fold activation [2] of 1.08 and a Relative activation [3] of 0.86%. For the same molecule, the Fold activation [4] was 3.39, the Fold activation [5] was 1.08 and the Fold activation [6] was 1.11. It also gave a Remaining activity [7] of 0.846 and a Fold activation [8] of 1.13.

Molecule `CO[C@H]1/C=C/O[C@@]2(C)Oc3c(C)c(O)c4c(O)c(c(/C=N/N5CCN(C)CC5)c(O)c4c3C2=O)NC(=O)/C(C)=C\C=C\[C@H](C)[C@H](O)[C@@H](C)[C@@H](O)[C@@H](C)[C@H](OC(C)=O)[C@@H]1C` has a Fold activation [9] of 1.14, a Remaining activity [10] of 0.952 and a Fold activation [11] of 1.04. It also gave a Fold activation [12] of 1.04, a P-value [13] of 0.000527 and a Fold activation [14] of 1.33. For the same molecule, the Relative activation [15] was 0.683%.

For `C=C1/C(=C\C=C2/CCC[C@]3(C)[C@@H]([C@H](C)/C=C/C=C/C(O)(CC)CC)CC[C@@H]23)C[C@@H](O)C[C@@H]1O`, the Relative activation [16] was 0.643%, the Fold activation [17] was 1.19 and the Fold activation [18] was 1.62. It also gave a Fold activation [19] of 0.996, a P-value [20] of 0.000219 and a Fold activation [21] of 1.08. It also gave a Fold activation [22] of 1.27.

`CCOP(=O)(OCC)C(=Cc1cc(C(C)(C)C)c(O)c(C(C)(C)C)c1)P(=O)(OCC)OCC` gave a Remaining activity [23] of 0.795, a Fold activation [24] of 1.37 and a Fold activation [25] of 1.01. It also gave a P-value [26] of 0.0136, a Remaining activity [27] of 0.935 and a Relative activation [28] of 0.581%. It also gave a Remaining activity [29] of 0.959.

`Cc1cc(OCC(=O)O)cc(C)c1Cc1ccc(O)c(C(C)C)c1` was tested, and the Remaining activity [30] was 0.672, the Remaining activity [31] was 0.623 and the Relative activation [32] was 0.666%. For the same molecule, the Remaining activity [33] was 0.496, the Remaining activity [34] was 0.57 and the P-value [35] was 0.00063. For the same molecule, the Remaining activity [36] was 0.638.
